Source: patent US20170319534A1, “EUTECTIC ANESTHETIC TOPICAL COMPOSITIONS” (Humco Holding Group, Inc., priority 2016, published 2017)

Assays:
[1] = 3-month/40° C. stability of topical anesthetics; format: physicochemical; conditions: for content as percent (in parentheses), 30 DAYS / content, 30 DAYS / content as percent (in parentheses), 60 DAYS / content, 60 DAYS / content as percent (in parentheses), 90 DAYS / content, 90 DAYS: 40° C.; for content as percent (in parentheses), INITIAL / content, INITIAL: 3-month/40° C. stability; for EXPIRY DATING: tentative expiry dating from 3-month/40° C. stability data
Experimental: The tables below show expiration dates for various topical anesthetics, including 3-month/40° C. stability data. Full-term controlled room temperature stability data are used to support the tentative expiry dating.

[2] = system: normal human 3D model of epidermal tissue
Description: The remaining components shown in Example 1 above were reduced accordingly, such as by 30.5%. […] Standard Ointment includes 95% white petrolatum and 5% white wax. Permeation was measuring using Franz type diffusion cells and a normal human 3D model of epidermal tissue.

[3] = cited from earlier work

Compound	content as percent (in parentheses), 30 DAYS [1]	content, 30 DAYS [1]	content as percent (in parentheses), 60 DAYS [1]	content, 60 DAYS [1]	content as percent (in parentheses), 90 DAYS [1]	content, 90 DAYS [1]	content as percent (in parentheses), INITIAL [1]	content, INITIAL [1]	EXPIRY DATING [1]	Percutaneous Absorption Testing, 12 Hours [2]	Percutaneous Absorption Testing, 24 Hours [2]	Percutaneous Absorption Testing, 36 Hours [2]	Percutaneous Absorption Testing, 48 Hours [2]	duration of action after topical application [3]	time to peak effect (ranking) ([3]; applied to mucous membranes)
CCCCNc1ccc(C(=O)OCCN(C)C)cc1 [Tetracaine]	(102.5%)	4.1% W/W	(100.0%)	4.0% W/W	(100.0%)	4.0% W/W	(95.0%)	3.8% W/W	~2.0 YEARS	2%	2%	3%	3%	up to 2 hours	–
CCOC(=O)c1ccc(N)cc1 [Benzocaine]	(102.5%)	20.5% W/W	(102.0%)	20.4% W/W	(98.0%)	19.6% W/W	(99.0%)	19.8% W/W	~1.2 YEARS	100%	100%	100%	100%	–	fastest
CCCCOc1cc(C(=O)NCCN(CC)CC)c2ccccc2n1 [Dibucaine]	–	–	–	–	–	–	–	–	–	–	–	–	–	3 to 4 h	–
CCN(CC)CC(=O)Nc1c(C)cccc1C [Lidocaine]	(103.0%)	10.3% W/W	(101.0%)	10.1% W/W	(104.0%)	10.4% W/W	(100.0%)	10.0% W/W	~2.0 YEARS	–	–	–	–	–	–
